Measurements: US20100183546A1, “Method for Increasing CD8+ Cytotoxic T Cell Responses and for Treating Multiple Sclerosis” (Baylor College of Medicine, priority 2003, published 2010)

Tested on: CD8+ T cells in CD4-depleted PBMC
Experiment: Precursor frequency analysis of CD8+ T cells recognizing MBP-derived peptides (split-well method, [3H]-thymidine proliferation)
Assay type: cell-based, human
Settings: MS patients vs healthy controls; p<0.05 for MBP111-119 and MBP87-95

immunodominant epitope (residues 830-838) of tetanus toxoid: synthetic peptide corresponding to an immunodominant peptide of tetanus toxoid (residues 830-838), used as control (QYIKANSKF; UniProt P04958 830-838, looked up, fragment) [reference compound]
frequency of peptide-recognizing CD8+ T cells in MS patients compared with control subjects: did not differ significantly

SLSRFSWGA [SEQ ID NO. 2, Fragment of human MBP, amino acids 111-119]
frequency of peptide-recognizing CD8+ T cells in MS patients compared with control subjects: considerably higher

MBPVVHFFKNIV [SEQ ID NO. 1, Fragment of human MBP, amino acids 87-95]
frequency of peptide-recognizing CD8+ T cells in MS patients compared with control subjects: considerably higher
